Experimental data: PubChem BioAssay (NCI)
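Five compound concentrations were applied to cells in 96-well plates for 48 hours; endpoints were derived by simple linear interpolation of the resulting dose-response curve. Abbreviation: GI50, concentration required for 50% inhibition of growth. At the TGI there is no net growth.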

What was measured:
Experiment in all cases: NCI anticancer screen, dose series, 48 h
HL-60(TB) leukemia = tested on: HL-60(TB) leukemia
SK-MEL-5 melanoma = tested on: SK-MEL-5 melanoma
SNB-19 CNS = tested on: SNB-19 CNS
CCRF-CEM leukemia = tested on: CCRF-CEM leukemia
HOP-62 NSCLC = tested on: HOP-62 NSCLC
SF-268 CNS = tested on: SF-268 CNS
SK-MEL-2 melanoma = tested on: SK-MEL-2 melanoma
CAKI-1 renal = tested on: CAKI-1 renal
PC-3 prostate = tested on: PC-3 prostate
MCF7 breast = tested on: MCF7 breast

Compound	TGI (HL-60(TB) leukemia)	TGI (SK-MEL-5 melanoma)	TGI (SNB-19 CNS)	TGI (CCRF-CEM leukemia)	TGI (HOP-62 NSCLC)	TGI (SF-268 CNS)	TGI (SK-MEL-2 melanoma)	TGI (CAKI-1 renal)	GI50 (HL-60(TB) leukemia)	GI50 (SK-MEL-5 melanoma)	GI50 (SNB-19 CNS)	GI50 (PC-3 prostate)	TGI (PC-3 prostate)	GI50 (MCF7 breast)	TGI (MCF7 breast)	GI50 (CCRF-CEM leukemia)	GI50 (HOP-62 NSCLC)	GI50 (SF-268 CNS)	GI50 (SK-MEL-2 melanoma)	GI50 (CAKI-1 renal)
COc1ccc(NC(=O)CC(=O)N/N=C/c2ccc(N(CCC#N)S(=O)(=O)c3ccccc3)cc2)cc1	> 100 µM	> 100 µM	> 100 µM	> 100 µM	> 100 µM	> 100 µM	> 100 µM	> 100 µM	–	–	–	–	–	–	–	–	–	–	–	–
COc1ccc(C(=O)C(C(=O)C(=O)Nc2nccs2)c2ccc(OC)cc2)cc1 (stereo not given)	–	> 100 µM	> 100 µM	> 100 µM	–	> 100 µM	> 100 µM	> 100 µM	–	–	–	–	–	–	–	–	–	–	–	–
COc1cc(-c2cc(/C=C3\C(=O)Nc4ccccc43)[nH]n2)cc(OC)c1OC	7.66 µM	3.45 µM	32.5 µM	6.96 µM	14.9 µM	17.2 µM	5.57 µM	–	2.62 µM	1.57 µM	4.13 µM	2.14 µM	10 µM	2.77 µM	11 µM	2.28 µM	3.2 µM	3.76 µM	2.27 µM	–
COc1cc2c([C@@H](OC(=O)c3ccccc3)c3ccc4c(c3)OCO4)nccc2c(OC)c1OC	92.9 µM	69.8 µM	> 100 µM	> 100 µM	> 100 µM	> 100 µM	–	> 100 µM	–	–	–	–	–	–	–	–	–	–	–	–
CCCCN(CCCC)C(=O)C(=O)C(C)C(=O)CC (stereo not given)	> 100 µM	–	> 100 µM	–	> 100 µM	> 100 µM	> 100 µM	> 100 µM	–	–	–	–	–	–	–	–	–	–	–	–
Cc1cccc(C)c1NC(=O)CCC(=O)NC(N)=S	> 100 µM	> 100 µM	> 100 µM	> 100 µM	> 100 µM	–	–	> 100 µM	–	–	–	–	–	–	–	–	–	–	–	–
Cc1[nH]nc2c1C(=O)C=C(N(CCO)c1ccccc1)C2=O	> 100 µM	> 100 µM	> 100 µM	> 100 µM	–	–	–	> 100 µM	–	–	–	–	–	–	–	–	–	–	–	–
CCCCCCNc1nc(N2CCOCC2)c2[nH]c(NCCCCCC)nc2n1	–	2.72 µM	3.41 µM	–	3.27 µM	3.44 µM	3.51 µM	2.97 µM	–	1.42 µM	1.8 µM	1.68 µM	3.54 µM	–	–	–	1.67 µM	1.78 µM	1.89 µM	1.53 µM
N#CC(C(=N/NC(N)=S)/C(=N/NC(N)=S)C(C#N)c1ccc(Cl)cc1)c1ccc(Cl)cc1 (stereo not given)	–	> 100 µM	> 100 µM	97.9 µM	> 100 µM	> 100 µM	> 100 µM	–	–	–	–	–	–	–	–	–	–	–	–	–
CCc1cccc(C(C)CC)c1NC(=O)C(=O)C(CC(=O)Nc1ccc(Cl)c(Cl)c1)C(=O)OC (stereo not given)	> 100 µM	–	> 100 µM	> 100 µM	> 100 µM	> 100 µM	> 100 µM	> 100 µM	–	–	–	–	–	–	–	–	–	–	–	–
CNC(=O)OC1C(O[C@H]2C[C@H]3[C@@H]4CC=C5C[C@@H](O)CC[C@]5(C)[C@H]4CC[C@]3(C)[C@H]2[C@H](C)C(=O)CCC(C)C)OCC(O)C1OC1OCC(O)C(O)C1OC(=O)c1ccc(OC)cc1 (stereo not given in full)	–	0.317 µM	3.89 µM	0.0373 µM	2.85 µM	2.78 µM	0.324 µM	1.04 µM	–	0.026 µM	0.0204 µM	0.01 µM	0.447 µM	0.0149 µM	2.87 µM	0.00566 µM	0.0225 µM	0.0226 µM	0.00933 µM	0.0676 µM
Cc1ccc(C2C3=C(N=c4s/c(=C/c5ccc(Br)cc5)c(=O)n42)c2ccc4ccccc4c2OCC3)cc1 (stereo not given)	> 100 µM	> 100 µM	> 100 µM	> 100 µM	> 100 µM	> 100 µM	> 100 µM	–	> 100 µM	> 100 µM	> 100 µM	> 100 µM	> 100 µM	> 100 µM	> 100 µM	> 100 µM	> 100 µM	> 100 µM	> 100 µM	–
Cc1nc(Nc2ccccc2)sc1C(=O)NNc1ccc([N+](=O)[O-])cc1[N+](=O)[O-]	41.2 µM	68.5 µM	> 100 µM	58.2 µM	> 100 µM	> 100 µM	> 100 µM	> 100 µM	–	–	–	–	–	–	–	–	–	–	–	–
C/C1=C\C/C=C(\C)[C@H]2CC(CC/C(C)=C/CC1)[C@](C)(C=O)O2	81.2 µM	> 100 µM	> 100 µM	–	> 100 µM	> 100 µM	> 100 µM	99.2 µM	25.6 µM	77.1 µM	> 100 µM	88.2 µM	> 100 µM	38.2 µM	87.8 µM	–	40.6 µM	> 100 µM	> 100 µM	36.4 µM
COc1cc(C2=NN(c3ccc(S(N)(=O)=O)cc3)C(c3ccc(Cl)cc3)C2)cc(OC)c1OC (stereo not given)	> 100 µM	18 µM	> 100 µM	> 100 µM	> 100 µM	> 100 µM	14.1 µM	–	3.94 µM	3.35 µM	5.48 µM	3.05 µM	> 100 µM	3.36 µM	> 100 µM	4.81 µM	5.8 µM	6.86 µM	3.35 µM	–
CC(=O)/C=C/C1=C(c2cccs2)c2ccccc2CC1	> 100 µM	–	–	54.2 µM	88 µM	–	71.2 µM	> 100 µM	20.7 µM	–	–	40.7 µM	> 100 µM	–	–	25.3 µM	33.8 µM	–	25.6 µM	41 µM
O=C(O)/C(=C\c1ccccc1Cl)S(=O)(=O)c1ccccc1	> 100 µM	> 100 µM	> 100 µM	> 100 µM	> 100 µM	> 100 µM	> 100 µM	> 100 µM	–	–	–	–	–	–	–	–	–	–	–	–
Cc1cc(C)n(C(=O)c2nn(-c3ccc(Cl)cc3)cc2O)n1	> 100 µM	23.3 µM	> 100 µM	54.5 µM	79.4 µM	> 100 µM	–	42.3 µM	39.6 µM	6.76 µM	3.6 µM	7.05 µM	> 100 µM	4.52 µM	> 100 µM	3.66 µM	5.21 µM	4.13 µM	–	4.23 µM
CC(=O)[C-](C(C)=O)c1ccccc1.CC(=O)[C-](C(C)=O)c1ccccc1.CC[O-].CC[O-].[Ti+4]	> 100 µM	> 100 µM	> 100 µM	–	> 100 µM	> 100 µM	> 100 µM	> 100 µM	> 100 µM	> 100 µM	> 100 µM	–	–	–	–	–	> 100 µM	> 100 µM	> 100 µM	> 100 µM
